Tests used:
[1] = biological target: T1, Histidine-rich protein PFHRP-II (Plasmodium falciparum) (UniProt P05227); assay: Vacuolar accumulation ratio (VAR) on beta-hematin inhibitory activity; type: functional
T1 sequence (whole entry): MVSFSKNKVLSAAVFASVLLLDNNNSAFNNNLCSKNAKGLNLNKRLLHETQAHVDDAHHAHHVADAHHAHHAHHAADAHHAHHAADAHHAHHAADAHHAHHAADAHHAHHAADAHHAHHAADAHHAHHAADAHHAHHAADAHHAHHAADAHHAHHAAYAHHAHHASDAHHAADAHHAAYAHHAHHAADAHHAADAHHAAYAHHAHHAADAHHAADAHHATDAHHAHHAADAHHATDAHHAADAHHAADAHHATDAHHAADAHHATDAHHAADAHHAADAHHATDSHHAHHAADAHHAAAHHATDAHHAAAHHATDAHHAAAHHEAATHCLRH

Plasmodium falciparum = assay: Antimalarial activity against chloroquine-resistant Plasmodium falciparum FcB1; type: functional, organism-based
MRC5 [2] = assay: Relative inhibitory activity to cytotoxicity as selectivity index (CC50/IC50); type: functional
[3] = biological target: T1, Histidine-rich protein PFHRP-II (Plasmodium falciparum); assay: Inhibition of 1-monooleoyl glycerol (MOG) induced beta-hematin formation at 200 uM; type: functional
MRC5 [4] = assay: Cytotoxicity against human diploid embryonic lung cell line (MRC5 cells) using the colorimetric MTT assay; type: functional

SMILES	VAR [1]	IC50 (Plasmodium falciparum) [nM]	Selectivity index (MRC5 [2])	inhibition [3] [%]	CC50 (MRC5 [4]) [µM]
CC(C)CN(CCCN1CCN(CCCNC(=O)c2ccncc2)CC1)CC(C)C	3200	1550	65	0	> 100
COc1ccc(CNCCCN2CCN(CCCN(CC(C)C)CC(C)C)CC2)cc1	476000	111	–	–	12
CC(C)CN(CCCN1CCN(CCCNc2cnccn2)CC1)CC(C)C	3600	531	151	–	80
CC(C)CN(CCCN1CCN(CCCNc2[nH]cnc3ncnc2-3)CC1)CC(C)C	6200	1230	67	53	82
CC(C)CN(CCCN1CCN(CCCNc2nc3ccccc3o2)CC1)CC(C)C	298000	1330	>75	–	> 100
CCN(CC)CCCC(C)Nc1ccnc2cc(Cl)ccc12 (stereo unspecified) [CHLOROQUINE]	5310	–	–	–	50
CC(C)CN(CCCN1CCN(CCCNc2ccnc3ccccc23)CC1)CC(C)C	882000	18.9	1587	–	30
CC(C)CN(CCCN1CCN(CCCNc2nc3ccccc3[nH]2)CC1)CC(C)C	388000	87.3	183	–	16
CC(C)CN(CCCN1CCN(CCCNC(=O)c2ccc(Cl)cc2)CC1)CC(C)C	3400	5270	18	0	93
CC(C)CN(CCCN1CCN(CCCNC(=O)c2ccc3ccccc3c2)CC1)CC(C)C	3300	672	>65	54	44
CC(C)CN(CCCN1CCN(CCCNCc2ccc3ccccc3c2)CC1)CC(C)C	475000	121	54	98	6.5
COc1ccc(C(=O)NCCCN2CCN(CCCN(CC(C)C)CC(C)C)CC2)cc1	3100	4430	–	–	57.7
CC(C)CN(CCCN1CCN(CCCNCc2ccccc2)CC1)CC(C)C	476000	454	46	–	21
CC(C)CN(CCCN1CCN(CCCNCc2ccncc2)CC1)CC(C)C	504000	842	36	–	30
CC(C)CN(CCCN1CCN(CCCNc2ccc([N+](=O)[O-])cn2)CC1)CC(C)C	3800	758	65	53	49
CC(C)CN(CCCN1CCN(CCCNc2ccnc3cc(Cl)ccc23)CC1)CC(C)C	597000	–	–	–	–
CC(C)CN(CCCN1CCN(CCCNCc2ccc(Cl)cc2)CC1)CC(C)C	475000	40.6	–	–	13
